From patent US11957766B2, “HNQO1-activatable fluorescent probe for imaging cancer cells in-vitro and in-vivo” (Texas Tech University System, priority 2019, dated 2024)

What was measured:
[1] = tested on: brain tumor (DAOY, T98G, and U87MG) and normal (astrocytes) cells; test: Cytotoxicity of NQ-DCP, resazurin reduction assay; assay type: cell-based, human; details: 100 μM, 72 h incubation
Experimental: (§1) Visualization of Cancer Cells by Fluorescence Imaging of hNQO1. […] The cytotoxicity of NQ-DCP was initially evaluated in cultured brain tumor (DAOY, T98G, and U87MG) and normal (astrocytes) cells to assess its biocompatibility using the resazurin reduction assay. […] Cells were incubated with NQ-DCP (10 μM) for 60 min, washed with PBS and were imaged under a fluorescence microscope.

[2] = tested on: normal (astrocytes) cells; test: Fluorescence microscopy of NQ-DCP in hNQO1 negative normal cells; assay type: cell-based; details: 10 μM, 60 min
Experimental: as §1
Cell Culture, Fluorescence Imaging, and Flow Cytometry Analysis. Brain tumor cells and astrocytes were grown in Dulbecco's modified Eagle's (DMEM) medium containing 10% Fetal Bovine Serum and 1% penicillin/streptomycin in a humidified atmosphere of 5% CO2 at 37° C. For fluorescence imaging, initially, cells were seeded into 6-well plate and cultured overnight in respective media at 37° C. Media was replaced with fresh medium containing 10 μM NQ-DCP and incubated at 37° C. for 60 min and then the medium was replaced with PBS and live cells were imaged using a fluorescence microscope. For inhibitor study, cells were pretreated with NQO1 inhibitor ES936 (100 nM) for 6 h before adding the NQ-DCP. For determining endogenous hNQO1 activity in cancer cells using flow cytometry, about 10×10^4 cells were incubated with 10 μM of NQ-DCP for 60 min and were analyzed using flow cytometry.

intracranial U87MG tumor = test: Fluorescence imaging of hNQO1 in intracranial U87MG tumor-bearing mice with NQ-DCP; assay type: in vivo
Experimental: Fluorescence Imaging of hNQO1 in U87MG Tumor-Bearing Mice. With the prominent performance of NQ-DCP in cellular fluorescence imaging, the inventors further applied this probe to evaluate its capacity for the noninvasive fluorescence imaging of hNQO1 in vivo. NQ-DCP (10 mg/kg, 50 μL) was intravenously injected into sub-cutaneous U87MG tumor-bearing mice. The whole-body fluorescence was imaged with a Caliper IVIS Spectral imaging system. […] The host organs and tumor from the mice administered with NQ-DCP were harvested and their fluorescence was analyzed ex vivo using the IVIS to confirm the tumor-selective targeting ability of NQ-DCP. […] The application of NQ-DCP to image hNQO1 activity was also investigated in intracranial U87MG tumor-bearing mice. Tumor xenografts were established by implanting exponentially growing U87MG-Luc cells by stereotaxic injection into mice brain and the tumor growth was assessed by quantitative bioluminescence using IVIS (in vivo imaging system) (FIG. 7C). […] Therefore, the inventors performed intracranial injection of NQ-DCP (100 μM, 5 μL) to both healthy and tumor-bearing mice, the brain was isolated after 30 min and fluorescence images acquired.
Four-week-old male and female NCG and athymic nude mice were housed in a micro ventilated caging system in a sterile environment and fed ad-libitum with standard irradiated research rodent diet and water. To detect endogenous NQO1 activity, NQ-DCP (10 mg/kg) was dissolved PEG-400:EtOH:saline (57.1:14.3:28.6, v/v/v) and 50 μL given through intravenous injection and animals were imaged using IVIS Lumina XR Imaging system. To establish U87MG xenografts, a total of 5×10^6 cells (in 0.1 mL) were subcutaneously injected into the right inguinal area of the athymic nude mice. For establishing the orthotopic brain tumor model, the animals were anesthetized using 2% isoflurane and positioned in a Benchmark (Leica) stereotactic instrument. A 27-gauge needle was then used to drill a burr hole into the skull 0.5-mm anterior and 2-mm lateral to the bregma. U87MG-Luc2 cell suspension (2×10^5 cells in 5 μl PBS) was injected in the striatum at a depth of […] from the dural surface over 10 min. […] To detect endogenous NQO1 activity, orthotopic brain tumor models, NQ-DCP ([…]) was dissolved saline and 5 μL given through intracranial injection to both healthy and tumor-bearing mice. After 30 min of administration, brains were isolated and imaged using IVIS Lumina XR Imaging system.

hNQO1 in T98G cells = test: siRNA knockdown of NQO1 and NQ-DCP activation; assay type: cell-based, human; details: compared with a siRNA control, 10 μM probe
Experimental: Evaluation of Specificity in Cancer Cells. To show the substrate selectivity of NQ-DCP for hNQO1, T98G cells were pretreated with 100 nM of NQO1 inhibitor ES936 for 6 h and incubated 10 μM of NQ-DCP.
Knockdown of NQO1 by Small Interfering RNA (siRNA). NQO1 siRNA (a pool of 3 target-specific 19-25 nt siRNAs, Santa Cruz Biotechnology, Inc., (Dallas, TX, USA) and scrambled siRNAs were introduced into cells using the X-tremeGENE siRNA transfection reagent (Roche, Basel, Switzerland) according to the manufacturer's instructions with 80 pmol of NQO1 siRNA and 10 μl of transfection reagent per well of a six-well plate for T98G cells.

NQO1 = NQO1 (Homo sapiens, UniProt P15559); test: Selectivity of NQ-DCP towards hNQO1 over other biomolecules/enzymes; assay type: biochemical; details: 10 μM probe, 30 min; GSH, ALDH1A1, GGT, GPx, APE1, CBS, CTSL, GST-pi, NTR, NADH
Sequence of NQO1 (P15559 whole entry): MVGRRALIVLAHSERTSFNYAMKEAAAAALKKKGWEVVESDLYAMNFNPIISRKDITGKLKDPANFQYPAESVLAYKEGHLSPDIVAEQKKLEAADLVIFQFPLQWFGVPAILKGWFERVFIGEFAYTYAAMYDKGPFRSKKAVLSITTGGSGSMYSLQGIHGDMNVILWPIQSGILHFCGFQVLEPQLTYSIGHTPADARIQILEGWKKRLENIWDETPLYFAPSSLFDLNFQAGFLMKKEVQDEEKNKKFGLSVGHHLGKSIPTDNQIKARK
Experimental: Selectivity of NQ-DCP Towards hNQO1. The specificity of NQ-DCP probe towards hNQO1 was studied by determining its reactivity towards various biomolecules such as the glutathione (GSH, 1 mM), aldehyde dehydrogenase 1 (ALDH1A1, 2.5 μg/mL), gamma-glutamyl transferase (GGT, 10 U), glutathione Peroxidase (GPx, 10 U), apurinic/apyrimidinic endonuclease (APE1, 10 U), cystathionine-β-synthase (CBS, 2 μg/mL), cathepsin L (CTSL, 2 μg/mL), glutathione S-transferase (GST-pi, 2 μg/mL), nitroreductase (NTR, 2 μg/mL) and NADH (100 μM) alone or the combination of and NQO1 (2.5 μg/mL). […] To gain more insight into the specificity of the probe towards hNQO1, the enzyme was pre-treated with ES936 (0-100 nM), a well-known hNQO1 inhibitor [39] and then incubated with NQ-DCP.
Selectivity Evaluation. To study the interference, NQ-DCP was incubated with various biologically relevant analytes such as thiols and other enzymes for 30 min with or without the addition of 100 μM NADH. Fluorescence spectra were analyzed to determine NQ-DCP specificity against hNQO1.

[3] = intracranial injection 100 μM, 5 μL, brain isolated after 30 min

selectivity for hNQO1 over the other enzymes/substrates tested (NQO1): high selectivity
SMILES: CC1=C(C)C(=O)C(C(C)(C)CC(=O)Oc2ccc(/C=C/C3=CC(=C(C#N)C#N)CC(C)(C)C3)cc2)=C(C)C1=O [NQ-DCP]
cytotoxicity [1]: nontoxic | fluorescence signal in normal cells [2]: no signals were observed | blood-brain barrier crossing (intracranial U87MG tumor; explanation offered ("perhaps") for lack of signal after systemic injection): inability of the NQ-DCP to cross the blood-brain barrier | ex vivo brain fluorescence, control healthy mouse (intracranial U87MG tumor; [3]): no fluorescence | ex vivo brain fluorescence, tumor-bearing mouse (intracranial U87MG tumor; [3]): bright fluorescence signal | fluorescence signal in intracranial tumors (intracranial U87MG tumor; systemic injections of the probe): not able to observe any fluorescence signal | decrease in fluorescence after siRNA silencing of the hNQO1 gene (hNQO1 in T98G cells): 90-95%
